Patent publication US7829591B2, “Flavanone compound and uses thereof” (Pokka Corporation, priority 2003, dated 2010)

Legend:
[1] = DPPH radical scavenging activity test; type: biochemical; conditions: 25 μM sample solution in ethanol, 1 h in dark, absorbance 517 nm; average ± SD of three runs
Method: DPPH (α,α-diphenyl-β-picrylhydradil) is a purple stable radical having a maximum absorption at 517 nm, which is converted into colorless hydrazine by gaining hydrogen. This color reaction was utilized so as to determine the radical scavenging activity of each of Compounds 1 to 4 and the like. That is, each of Compounds 1 to 4 was dissolved in ethanol to prepare 3 ml of a sample solution having a concentration of 25 μM. Thereafter, to each of the resultant sample solutions, 0.75 ml of a 0.5 mM DPPH solution (whose solvent was ethanol) was added and stirred, and reacted in a dark place for one hour, followed by the determination of an absorbance at 517 nm. Furthermore, in place of Compounds 1 to 4, BHT (butylated hydroxytoluene), α-tocopherol or eriodictyol was used so as to determine an absorbance according to a similar procedure to the above. Besides, instead of the above sample solutions, ethanol was used as a control so as to determine an absorbance according to a similar procedure to the above. Then the radical scavenging activity (%) of each of the materials was calculated using the following calculation formula 1. Incidentally, each of values shown in Table 1 is the average value and standard deviation of values obtained from three runs. (Radical Scavenging Activity)=[{(Absorbance of Control)−(Absorbance of Sample Solution)}/(Absorbance of Control)]×100 Calculation Formula 1

β-carotene fading test = type: biochemical; conditions: 20 μM in reaction liquid, 60° C. for 60 minutes, absorbance 470 nm; average ± SD of three runs
Method: β-carotene will fade due to the reaction of linoleic acid peroxide, which is produced by the autoxidation of linoleic acid, with a double bond in β-carotene. This phenomenon was utilized so as to determine the antioxidant activity of each of Compounds 1 to 4 and the like. That is, first of all, 2 ml of a 200 mg/ml solution of Tween-40 in chloroform, 0.4 ml of a 100 mg/ml solution of linoleic acid in chloroform, and 3 ml of a 0.1 mg/ml solution of β-carotene in chloroform were mixed, and thereafter the solvent was removed by using a nitrogen gas. Subsequently, 100 ml of distilled water was added thereto, and adequately stirred to obtain an emulsion. To 3 ml of this emulsion, ethanol was added to completely dissolve the solute in the solvent. Thereafter, each of Compounds 1 to 4 was dissolved in ethanol so as to prepare a sample solution having a concentration of 1.2 mM. 50 μl of the sample solution was mixed with the above emulsion wherein the solute had been completely dissolved so as to prepare a reaction liquid (or a sample reaction liquid). Then the concentration of each of Compounds 1 to 4 in the reaction liquid was 20 μM. The reaction liquid was incubated at 60° C. for 60 minutes. Then the absorbance of each of the reaction liquid before the incubation and the reaction liquid after the incubation was determined at 470 nm. Furthermore, BHT, α-tocopherol, or eriodictyol was used in place of Compounds 1 to 4 so as to determine the absorbance of the reaction liquid before and after incubation according to a similar procedure to the above-mentioned one. In addition, as a control, a reaction liquid (or a control reaction liquid) wherein no sample solution was contained was prepared so as to determine the absorbance of the reaction liquid before and after incubation according to a similar procedure to the above-mentioned one. The antioxidant activity (%) of each of the materials was calculated using the following calculation formula 2. Incidentally, each of values shown in Table 1 is the average value and standard deviation of values obtained from three runs. (Antioxidant Activity)=[{(Fading Rate of Control)−(Fading Rate of Sample Solution)}/(Fading Rate of Control)]×100 Calculation Formula 2
It should be noted that in the calculation formula 2, “Fading Rate of Control” is the natural logarithm of a value which is acquired by dividing the absorbance of the control reaction liquid before incubation by the absorbance of the control reaction liquid after incubation and further by dividing the resultant value by 60; and “Fading Rate of Sample Solution” is the natural logarithm of a value which is acquired by dividing the absorbance of the sample reaction liquid before incubation by the absorbance of the sample reaction liquid after incubation and further by dividing the resultant value by 60.

[2] = tested on: breast cancer cells (MCF-7); assay: Breast cancer cell proliferation-inhibition test; type: cell-based; conditions: 0.1 nM estradiol, Control 1 at 0 day = 1
Method: When breast cancer cells (MCF-7) are cultured, if estradiol (or 17β-estradiol) having a cell-proliferation accelerating action, is added thereto, the proliferation of breast cancer cells can be simply promoted in a short period. This phenomenon was utilized so as to examine the effect of each of Compounds 1 to 4 and the like on the proliferation inhibition of breast cancer cells. That is, first of all, each of Compounds 1 to 4 was diluted with dimethyl sulfoxide to prepare a sample solution. Thereafter, 2×10^3 of MCF-7 were inoculated in each well of a 96-well plate, and estradiol and the sample solution were added thereto after 4 hours. Estradiol was added to each compartment so that the final concentration of estradiol can be 0.1 nM, and the final concentration of the sample solution can be 0.2 μM, 2 μM, or 20 μM. After incubation for a predetermined period of time (three or five days), each of the media was replaced with a new medium, and an enzyme solution (Cell counting Kit-8: Wako) was added to the new medium in an amount of 10% of the new medium. After maintained the medium in an incubator at a temperature of 37° C. for two hours, the absorbance of the medium was determined at a wavelength of 450 nm (a reference wave length of 630 nm) by means of a spectrophotometer so as to quantify the number of living cells in each compartment.
As for the compartment whose incubation period is predetermined to be five days, on the third day of the incubation, the medium was replaced with a new medium, and thereafter, estradiol and a sample solution were added to the new medium, and the incubation was continued till fifth day. As for the compartment whose incubation period is predetermined to be 0 day, at four hours after the cells were inoculated, an enzyme solution was added to the medium. The medium was maintained in an incubator at a temperature of 37° C. for two hours, followed by determining the absorbance.
Instead of Compounds 1 to 4, eriodictyol was used to determine the absorbance according to a similar procedure to the above-mentioned one, and thus the number of living cells in each compartment was quantified. Furthermore, Control 1 to which neither estradiol nor a sample had been added was used to determine the absorbance according to a similar procedure to the above-mentioned one, and thus the number of living cells in each compartment was quantified, while Control 2 to which no sample had been added was used to determine the absorbance according to a similar procedure to the above-mentioned one, and thus the number of living cells in each compartment was quantified.
When it is assumed that the number of living cells of Control 1 as quantified after a zero-day incubation period is 1, the relative value of living cells as quantified in each of the runs mentioned above is shown in Table 2. Incidentally, each of values shown in Table 2 is the average value and standard deviation of values obtained from eight wells.

| SMILES | Radical Scavenging Activity (%) from DPPH Radical Scavenging Activity Test [1] | Antioxidant Activity (%) from β-carotene Fading Test (β-carotene fading test) | Relative Value of Living Cells ([2]; 0.2 μM sample, after 3-days incubation) | Relative Value of Living Cells ([2]; 0.2 μM sample, after 5-days incubation) | Relative Value of Living Cells ([2]; 0.2 μM sample, on 0-day incubation, mean ± SD of eight wells) | Relative Value of Living Cells ([2]; 2 μM sample, after 3-days incubation) | Relative Value of Living Cells ([2]; 2 μM sample, after 5-days incubation) | Relative Value of Living Cells ([2]; 2 μM sample, on 0-day incubation) | Relative Value of Living Cells ([2]; 20 μM sample, after 3-days incubation) | Relative Value of Living Cells ([2]; 20 μM sample, after 5-days incubation) | Relative Value of Living Cells ([2]; 20 μM sample, on 0-day incubation) |
| --- | --- | --- | --- | --- | --- | --- | --- | --- | --- | --- | --- |
| O=C1C[C@@H](c2ccc(O)c(O)c2)Oc2cc(O)cc(O)c21 [Eriodictyol, eriodictyol, reference compound] | 68.82 ± 1.12% | 81.47 ± 2.48% | 2.88 ± 0.22 | 7.33 ± 0.60 | 0.96 ± 0.04 | 2.90 ± 0.13 | 7.16 ± 0.36 | 0.98 ± 0.07 | 2.54 ± 0.30 | 5.13 ± 0.62 | 1.01 ± 0.05 |
| Cc1c(C)c2c(c(C)c1O)CC[C@@](C)(CCC[C@H](C)CCC[C@H](C)CCCC(C)C)O2 [α-tocopherol, reference compound] | 58.87 ± 1.24% | 93.00 ± 0.73% |  |  |  |  |  |  |  |  |  |
| Cc1cc(C(C)(C)C)c(O)c(C(C)(C)C)c1 [BHT, butylated hydroxytoluene, reference compound] | 28.51 ± 7.48% | 85.02 ± 1.89% |  |  |  |  |  |  |  |  |  |
